In publication PMC11288027, “Exploring novel microbial metabolites and drugs for inhibiting Clostridioides difficile” (mSphere, 2024):
pIC50: −log10 of the molar value. ≈ marks a conversion by molar mass, not a printed value. Like-named read-outs stand apart in the source and are kept apart here.

Tests used:
[1] = tested on: C. difficile clinical isolates; assay: MIC against a panel of 20 C. difficile clinical isolates (broth microdilution); format: cell-based, Clostridioides difficile; conditions: Clostridioides difficile; for MIC50: concentration that inhibited 50% of the 20 C. difficile clinical isolates
B. fragilis = assay: MIC against human gut microbiota; format: cell-based, Bacteroides fragilis; conditions: Bacteroides fragilis, anaerobic, read-out: minimum inhibitory concentration (MIC)
B. dorei = assay: MIC against human gut microbiota; format: cell-based, Bacteroides dorei; conditions: Phocaeicola dorei; B. dorei HM- 719, BHIS broth, anaerobic; read-out: minimum inhibitory concentration (MIC)
Bif. breve = assay: MIC against human gut microbiota; format: cell-based, Bifidobacterium breve; conditions: Bifidobacterium breve, ATCC15700; Bif. breve ATCC 15700, BHIS broth, anaerobic; read-out: minimum inhibitory concentration (MIC)
Bif. angulatum = assay: MIC against human gut microbiota; format: cell-based, Bifidobacterium angulatum; conditions: Bifidobacterium angulatum; Bif. angulatum HM- 1189, BHIS broth, anaerobic; read-out: minimum inhibitory concentration (MIC)
Bif. adolescentis = assay: MIC against human gut microbiota; format: cell-based, Bifidobacterium adolescentis; conditions: Bifidobacterium adolescentis; Bif. adolescentis HM- 633, BHIS broth, anaerobic; read-out: minimum inhibitory concentration (MIC)
Bif. longum = assay: MIC against human gut microbiota; format: cell-based, Bifidobacterium longum; conditions: Bifidobacterium longum, anaerobic, read-out: minimum inhibitory concentration (MIC)
E. faecium = assay: MIC against human gut microbiota; format: cell-based, Enterococcus faecium; conditions: Enterococcus faecium; E. faecium HM-202, TSB, aerobic; read-out: minimum inhibitory concentration (MIC)
E. fecalis = assay: MIC against human gut microbiota; format: cell-based, Enterococcus faecalis; conditions: Enterococcus faecalis; E. fecalis HM-970, TSB, aerobic; read-out: minimum inhibitory concentration (MIC)
L. casei = assay: MIC against human gut microbiota; format: cell-based; conditions: Lacticaseibacillus casei, ATCC334; L. casei ATCC 334, MRS broth, 5% CO2; read-out: minimum inhibitory concentration (MIC)
L. brevis = assay: MIC against human gut microbiota; format: cell-based, Lactobacillus brevis; conditions: Levilactobacillus brevis, ATCC14864; L. brevis ATCC-14864, MRS broth, 5% CO2; read-out: minimum inhibitory concentration (MIC)
L. rhamanosus = assay: MIC against human gut microbiota; format: cell-based, Lactobacillus rhamnoosus; conditions: Lactobacillus, ATCC53103; L. rhamanosus ATCC-53103, MRS broth, 5% CO2; read-out: minimum inhibitory concentration (MIC)
Bifidobacterium species = assay: MIC against human gut microbiota, summary in text; format: cell-based; conditions: summary over the Bifidobacterium strains of Table 4
[2] = tested on: C. difficile ATCC BAA-1870; assay: MIC of active hits by broth microdilution; conditions: C. difficile ATCC BAA-1870, 48 h anaerobic; for MIC: Clostridioides difficile, ATCCBAA1870, 48 h
enterococcal species = assay: MIC against human gut microbiota, summary in text; format: cell-based; conditions: summary over the Enterococcus strains of Table 4
Bacillus subtilis = tested on: Bacillus subtilis; parameters: method as in earlier work; conditions: cited from earlier work
[3] = tested on: methicillin-resistant S. aureus (MRSA); parameters: method as in earlier work; conditions: cited from earlier work
Escherichia coli = tested on: Escherichia coli; parameters: method as in earlier work; conditions: cited from earlier work
[4] = tested on: Mycobacterium tuberculosis; parameters: method as in earlier work; conditions: read-out: half-maximal inhibitory concentration [IC50]; cited from earlier work
in vitro = conditions: monkey
[5] = tested on: C. difficile ATCC BAA-1870; assay: Time-kill assay at 5 × MIC; conditions: C. difficile ATCC BAA-1870, ~10^6 CFU/mL, up to 24 h
[6] = tested on: monkey kidney epithelial (Vero) cells; assay: Cytotoxicity assessment against Vero cells (MTS); conditions: Vero IC50 relative to MIC90 of C. difficile panel
[7] = B. fragilis HM- 709, BHIS broth
[8] = B. fragilis HM- 718, BHIS broth
[9] = Bif. longum HM- 845, BHIS broth
[10] = Bif. longum HM- 846, BHIS broth
[11] = Bif. longum HM- 847, BHIS broth
[12] = Bif. longum HM- 848, BHIS broth

## CCCCc1oc2ccc(NS(C)(=O)=O)cc2c1C(=O)c1ccc(OCCCN(CCCC)CCCC)cc1 [Dronedarone]
[1]; 48 h, read-out: MIC50
  MIC50: 4 µg/mL (≈ 7.18 µM)
[1]; ATCC630, C. difficile ATCC 630, read-out: minimum inhibitory concentration (MIC)
  MIC: 4 µg/mL (≈ 7.18 µM)
[1]; ATCC43255, C. difficile ATCC 43255, read-out: minimum inhibitory concentration (MIC)
  MIC: 4 µg/mL (≈ 7.18 µM)
[1]; ATCCBAA1870, C. difficile ATCC BAA-1870 (Ribotype-027), purchased compounds, panel test, read-out: minimum inhibitory concentration (MIC)
  MIC: 4 µg/mL (≈ 7.18 µM)
[1]; C. difficile CD-1 (Ribotype-027), read-out: minimum inhibitory concentration (MIC)
  MIC: 4 µg/mL (≈ 7.18 µM)
[1]; C. difficile CD-6 (Ribotype-027), read-out: minimum inhibitory concentration (MIC)
  MIC: 4 µg/mL (≈ 7.18 µM)
[1]; C. difficile CD-10(Ribotype-027), read-out: minimum inhibitory concentration (MIC)
  MIC: 4 µg/mL (≈ 7.18 µM)
[1]; C. difficile CD-12, read-out: minimum inhibitory concentration (MIC)
  MIC: 4 µg/mL (≈ 7.18 µM)
[1]; C. difficile CD-13, read-out: minimum inhibitory concentration (MIC)
  MIC: 4 µg/mL (≈ 7.18 µM)
[1]; C. difficile CD-15, read-out: minimum inhibitory concentration (MIC)
  MIC: 4 µg/mL (≈ 7.18 µM)
[1]; C. difficile CD-22, read-out: minimum inhibitory concentration (MIC)
  MIC: 2 µg/mL (≈ 3.59 µM)
[1]; C. difficile CD-23, read-out: minimum inhibitory concentration (MIC)
  MIC: 8 µg/mL (≈ 14.4 µM)
[1]; C. difficile CD-24, read-out: minimum inhibitory concentration (MIC)
  MIC: 2 µg/mL (≈ 3.59 µM)
[1]; C. difficile CD-26 (Ribotype-027), read-out: minimum inhibitory concentration (MIC)
  MIC: 4 µg/mL (≈ 7.18 µM)
[1]; C. difficile CD-28, read-out: minimum inhibitory concentration (MIC)
  MIC: 8 µg/mL (≈ 14.4 µM)
[1]; C. difficile CD-29 (Ribotype-027), read-out: minimum inhibitory concentration (MIC)
  MIC: 2 µg/mL (≈ 3.59 µM)
[1]; C. difficile CD-30, read-out: minimum inhibitory concentration (MIC)
  MIC: 8 µg/mL (≈ 14.4 µM)
[1]; C. difficile NR-49302, read-out: minimum inhibitory concentration (MIC)
  MIC: 4 µg/mL (≈ 7.18 µM)
[1]; C. difficile NR-49304, read-out: minimum inhibitory concentration (MIC)
  MIC: 2 µg/mL (≈ 3.59 µM)
[1]; C. difficile NR-49308, read-out: minimum inhibitory concentration (MIC)
  MIC: 4 µg/mL (≈ 7.18 µM)
[1]; C. difficile NR-49319, read-out: minimum inhibitory concentration (MIC)
  MIC: 8 µg/mL (≈ 14.4 µM)
[1]; read-out: MIC50
  MIC50: 4 µg/mL (≈ 7.18 µM)
[1]; concentration that inhibited 90% of the 20 C. difficile clinical isolates, read-out: MIC90
  MIC90: 8 µg/mL (≈ 14.4 µM)
B. fragilis; [7]
  MIC: 8 µg/mL (≈ 14.4 µM)
B. fragilis; [8]
  MIC: 8 µg/mL (≈ 14.4 µM)
B. dorei
  MIC: 8 µg/mL (≈ 14.4 µM)
Bif. breve
  MIC: 8 µg/mL (≈ 14.4 µM)
Bif. angulatum
  MIC: 8 µg/mL (≈ 14.4 µM)
Bif. adolescentis
  MIC: 8 µg/mL (≈ 14.4 µM)
Bif. longum; [9]
  MIC: 8 µg/mL (≈ 14.4 µM)
Bif. longum; [10]
  MIC: 8 µg/mL (≈ 14.4 µM)
Bif. longum; [11]
  MIC: 8 µg/mL (≈ 14.4 µM)
Bif. longum; [12]
  MIC: 8 µg/mL (≈ 14.4 µM)
E. faecium
  MIC: 8 µg/mL (≈ 14.4 µM)
E. fecalis
  MIC: 4 µg/mL (≈ 7.18 µM)
L. casei
  MIC: 64 µg/mL (≈ 115 µM)
L. brevis
  MIC: 32 µg/mL (≈ 57.5 µM)
L. rhamanosus
  MIC: 128 µg/mL (≈ 230 µM)
Bifidobacterium species
  MIC: 2 to 8 µg/mL (≈ 3.59 to 14.4 µM)
[2]
  MIC (μM): 8 µM
  MIC: 4.45 µg/mL

## COc1cc2c(cc1O)CCN[C@]21CS[C@@H]2c3c(OC(C)=O)c(C)c4c(c3[C@H](COC1=O)N1[C@@H]2[C@H]2c3c(cc(C)c(OC)c3O)C[C@@H]([C@@H]1C#N)N2C)OCO4 [ET-770, ecteinascidin 770]
[1]
  MIC90: 0.125 µg/mL (≈ 0.162 µM)
  MIC50: 0.06 µg/mL (≈ 0.0778 µM)
[1]; 48 h
  MIC50: ≤ 0.06 µg/mL
[1]; ATCC630, read-out: minimum inhibitory concentration (MIC), C. difficile ATCC 630
  MIC: 0.03 µg/mL (≈ 0.0389 µM)
[1]; ATCC43255, read-out: minimum inhibitory concentration (MIC), C. difficile ATCC 43255
  MIC: 0.06 µg/mL (≈ 0.0778 µM)
[1]; ATCCBAA1870, read-out: minimum inhibitory concentration (MIC), C. difficile ATCC BAA-1870 (Ribotype-027), purchased compounds, panel test
  MIC: 0.125 µg/mL (≈ 0.162 µM)
[1]; read-out: minimum inhibitory concentration (MIC), C. difficile CD-1 (Ribotype-027)
  MIC: 0.125 µg/mL (≈ 0.162 µM)
[1]; read-out: minimum inhibitory concentration (MIC), C. difficile CD-6 (Ribotype-027)
  MIC: 0.125 µg/mL (≈ 0.162 µM)
[1]; read-out: minimum inhibitory concentration (MIC), C. difficile CD-10(Ribotype-027)
  MIC: 0.125 µg/mL (≈ 0.162 µM)
[1]; read-out: minimum inhibitory concentration (MIC), C. difficile CD-12
  MIC: 0.125 µg/mL (≈ 0.162 µM)
[1]; read-out: minimum inhibitory concentration (MIC), C. difficile CD-13
  MIC: 0.06 µg/mL (≈ 0.0778 µM)
[1]; read-out: minimum inhibitory concentration (MIC), C. difficile CD-15
  MIC: 0.06 µg/mL (≈ 0.0778 µM)
[1]; read-out: minimum inhibitory concentration (MIC), C. difficile CD-22
  MIC: 0.125 µg/mL (≈ 0.162 µM)
[1]; read-out: minimum inhibitory concentration (MIC), C. difficile CD-23
  MIC: 0.06 µg/mL (≈ 0.0778 µM)
[1]; read-out: minimum inhibitory concentration (MIC), C. difficile CD-24
  MIC: 0.125 µg/mL (≈ 0.162 µM)
[1]; read-out: minimum inhibitory concentration (MIC), C. difficile CD-26 (Ribotype-027)
  MIC: 0.125 µg/mL (≈ 0.162 µM)
[1]; read-out: minimum inhibitory concentration (MIC), C. difficile CD-28
  MIC: 0.03 µg/mL (≈ 0.0389 µM)
[1]; read-out: minimum inhibitory concentration (MIC), C. difficile CD-29 (Ribotype-027)
  MIC: 0.06 µg/mL (≈ 0.0778 µM)
[1]; read-out: minimum inhibitory concentration (MIC), C. difficile CD-30
  MIC: 0.125 µg/mL (≈ 0.162 µM)
[1]; read-out: minimum inhibitory concentration (MIC), C. difficile NR-49302
  MIC: 0.06 µg/mL (≈ 0.0778 µM)
[1]; read-out: minimum inhibitory concentration (MIC), C. difficile NR-49304
  MIC: 0.06 µg/mL (≈ 0.0778 µM)
[1]; read-out: minimum inhibitory concentration (MIC), C. difficile NR-49308
  MIC: 0.125 µg/mL (≈ 0.162 µM)
[1]; read-out: minimum inhibitory concentration (MIC), C. difficile NR-49319
  MIC: 0.06 µg/mL (≈ 0.0778 µM)
B. fragilis; [7]
  MIC: ≤ 2 µg/mL
B. fragilis; [8]
  MIC: ≤ 2 µg/mL
B. dorei
  MIC: ≤ 2 µg/mL
Bif. breve
  MIC: ≤ 2 µg/mL
Bif. angulatum
  MIC: ≤ 2 µg/mL
Bif. adolescentis
  MIC: ≤ 2 µg/mL
Bif. longum; [9]
  MIC: ≤ 2 µg/mL
Bif. longum; [10]
  MIC: ≤ 2 µg/mL
Bif. longum; [11]
  MIC: ≤ 2 µg/mL
Bif. longum; [12]
  MIC: ≤ 2 µg/mL
E. faecium
  MIC: ≤ 2 µg/mL
E. fecalis
  MIC: ≤ 2 µg/mL
L. casei
  MIC: ≤ 2 µg/mL
L. brevis
  MIC: ≤ 2 µg/mL
L. rhamanosus
  MIC: ≤ 2 µg/mL
Enterococcal species
  MIC: ≤ 2 µg/mL
Bacillus subtilis
  MIC: 1.01 µM (≈ 0.779 µg/mL)
[3]
  MIC: 2.02 µM (≈ 1.56 µg/mL)
Escherichia coli
  MIC: 32.43 µM (≈ 25 µg/mL)
[4]
  pIC50: 6.89
In vitro
  IC50 at 24 h: > 128 µg/mL
[5]
  time to eliminate / clear C. difficile: 6 h
[2]
  MIC: ≤ 0.19 µg/mL
[6]
  safety index: Vero IC50 as times the MIC90 against strains of C. difficile: more than 1024 times
